Four compounds from patent US20170334899A1, “AMINO-SUBSTITUTED ISOTHIAZOLES” (Bayer Pharma Aktiengesellschaft, priority 2014, published 2017) can be followed below.

The target in assay [1] is T1, catalytic domain of human Bub1 (amino acids 704-1085) (Homo sapiens, UniProt O43683).
T1 construct: catalytic domain of human Bub1 (amino acids 704-1085); His6 (N); made in house; host or cells: insect cells (Hi5)
In words: Bub1 kinase assay (TR-FRET). The class given is biochemical. Conditions: 10 μM ATP, avg, read-out: Bub1 avg (IC50 [mol/l]). In outline: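 Readout is the 665/620 nm TR-FRET ratio from anti-phosphoserine antibody, Eu-labelled anti-mouse IgG and streptavidin-XL665, scaled between no-enzyme and uninhibited controls. Reaction: 1 μM biotinylated peptide, 10 μM ATP, 60 min, 22 °C, after 15 min compound preincubation with His6-Bub1 (704-1085, insect-expressed, ~200 ng/ml).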
On the technique in general: Time-resolved FRET reads energy transfer from a long-lived donor to a nearby acceptor.

The test system of assay [2] is human cervical tumor cell line HeLa (ATCC CCL-2). Nature of the assay: SAC-Formation - Paclitaxel-Induced Assay. The conditions noted are these: Homo sapiens, HeLa, 24 h, HeLa cells, paclitaxel 0.05 μM, test range 0.005 μM-20 μM, read-out: IC50 [mol/l] SAC-Formation - Paclitaxel-Induced Assay. Type of assay: cell-based. The essentials: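 HeLa cells incubated overnight at 37° C, then given paclitaxel (0.05 μM final) plus test compound (0.005–20 μM, 0.5% DMSO) together for 24 h at 37° C. Fixed cells stained for phospho-histone H3 Ser10 (mitotic cells) and Hoechst 33342 (cell count); imaging-derived mitotic index fitted by four-parameter Hill equation.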

Values joined by “and” are separate entries in the source; they are usually repeats but may differ in a detail not shown here. Equal entries are not always repeated. A value given as a limit tells only on which side of the number the result lay.

T1 sequence (O43683 704-1085): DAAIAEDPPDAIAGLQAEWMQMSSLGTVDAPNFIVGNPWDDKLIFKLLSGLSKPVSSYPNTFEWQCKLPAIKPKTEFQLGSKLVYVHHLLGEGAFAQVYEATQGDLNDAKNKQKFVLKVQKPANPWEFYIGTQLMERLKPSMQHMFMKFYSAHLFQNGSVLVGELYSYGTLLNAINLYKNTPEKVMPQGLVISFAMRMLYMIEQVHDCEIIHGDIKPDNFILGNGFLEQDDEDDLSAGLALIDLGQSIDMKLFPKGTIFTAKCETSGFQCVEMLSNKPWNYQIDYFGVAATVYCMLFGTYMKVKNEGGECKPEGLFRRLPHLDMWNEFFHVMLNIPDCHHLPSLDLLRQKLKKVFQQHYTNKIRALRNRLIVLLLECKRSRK

For `Cc1nsc(Nc2cnc3ccccc3n2)c1C(=O)Nc1ccc(C(=O)NCCN2CCCC(F)(F)C2)cc1` [Example 156, N-(4-{[2-(3,3-difluoropiperidin-1-yl)ethyl]carbamoyl}phenyl)-3-methyl-5-(quinoxalin-2-ylamino)-1,2-thiazole-4-carboxamide], the IC50 is 19 µM and > 20 µM in assay [1]; 4 µM in assay [2].

`Cc1nsc(Nc2cnc(C(F)(F)F)cn2)c1C(=O)Nc1ccc(OC[C@@H]2CCN(CC(F)F)C2)nc1` [Example 127, N-(6-{[(3R)-1-(2,2-difluoroethyl)pyrrolidin-3-yl]methoxy}pyridin-3-yl)-3-methyl-5-{[5-(trifluoromethyl)pyrazin-2-yl]amino}-1,2-thiazole-4-carboxamide]: the results for the IC50 in assay [1] and in assay [2] were at least 20 µM and 0.083 µM, respectively.

Turning to `Cc1nsc(Nc2cnc(C(F)(F)F)cn2)c1C(=O)Nc1ccc(OCC2CCN(CCC(F)(F)F)C2)nc1` (centres unmarked) [Example 124, 3-methyl-5-{[5-(trifluoromethyl)pyrazin-2-yl]amino}-N-(6-{[1-(3,3,3-trifluoropropyl)pyrrolidin-3-yl]methoxy}pyridin-3-yl)-1,2-thiazole-4-carboxamide], the IC50 in assay [1] is at least 20 µM; in assay [2], 0.038 µM.

As for `CCCCN1CC[C@@H](Oc2ccc(NC(=O)c3c(C)nsc3Nc3cnc(C(F)(F)F)cn3)cn2)[C@@H](F)C1` [Example 141, N-(6-{[(3S,4R)-1-butyl-3-fluoropiperidin-4-yl]oxy}pyridin-3-yl)-3-methyl-5-{[5-(trifluoromethyl)pyrazin-2-yl]amino}-1,2-thiazole-4-carboxamide], the IC50 in assay [1] was at least 20 µM; in assay [2] it was 0.12 µM.
